# PubChem BioAssay (NCI)
#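 Assay format: 96-well plates, 48-hour exposure. The concentration for 50% growth inhibition is given as GI50. TGI: concentration producing complete growth inhibition.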
# What was measured:
# Experiment in all cases: inhibition of tumour cell growth, NCI panel, 48 h
# 786-0 renal = system: 786-0 renal
# A498 renal = system: A498 renal
# A549 NSCLC = system: A549 NSCLC
# ACHN renal = system: ACHN renal
# BT-549 breast = system: BT-549 breast
# CAKI-1 renal = system: CAKI-1 renal
# CCRF-CEM leukemia = system: CCRF-CEM leukemia
# COLO 205 colon = system: COLO 205 colon
# DU-145 prostate = system: DU-145 prostate
# EKVX NSCLC = system: EKVX NSCLC
# HCC-2998 colon = system: HCC-2998 colon
# HCT-116 colon = system: HCT-116 colon
# HCT-15 colon = system: HCT-15 colon
# HL-60(TB) leukemia = system: HL-60(TB) leukemia
# HOP-62 NSCLC = system: HOP-62 NSCLC
# HOP-92 NSCLC = system: HOP-92 NSCLC
# HS 578T breast = system: HS 578T breast
# HT29 colon = system: HT29 colon
# IGROV1 ovarian = system: IGROV1 ovarian
# K-562 leukemia = system: K-562 leukemia
# KM12 colon = system: KM12 colon
# LOX IMVI melanoma = system: LOX IMVI melanoma
# M14 melanoma = system: M14 melanoma
# MALME-3M melanoma = system: MALME-3M melanoma
# MCF7 breast = system: MCF7 breast
# MDA-MB-231 breast = system: MDA-MB-231 breast
# MDA-MB-435 = system: MDA-MB-435
# MOLT-4 leukemia = system: MOLT-4 leukemia
# NCI-H226 lung = system: NCI-H226 lung
# NCI-H23 lung = system: NCI-H23 lung
# NCI-H460 lung = system: NCI-H460 lung
# NCI-H522 lung = system: NCI-H522 lung
# NCI/ADR-RES ovarian = system: NCI/ADR-RES ovarian
# OVCAR-3 ovarian = system: OVCAR-3 ovarian
# OVCAR-4 ovarian = system: OVCAR-4 ovarian
# OVCAR-5 ovarian = system: OVCAR-5 ovarian
# OVCAR-8 ovarian = system: OVCAR-8 ovarian
# PC-3 prostate = system: PC-3 prostate
# RPMI-8226 leukemia = system: RPMI-8226 leukemia
# RXF 393 renal = system: RXF 393 renal
# SF-268 CNS = system: SF-268 CNS
# SF-295 CNS = system: SF-295 CNS
# SF-539 CNS = system: SF-539 CNS
# SK-MEL-2 melanoma = system: SK-MEL-2 melanoma
# SK-MEL-28 melanoma = system: SK-MEL-28 melanoma
# SK-MEL-5 melanoma = system: SK-MEL-5 melanoma
# SK-OV-3 ovarian = system: SK-OV-3 ovarian
# SN12C renal = system: SN12C renal
# SNB-19 CNS = system: SNB-19 CNS
# SNB-75 CNS = system: SNB-75 CNS
# SR leukemia = system: SR leukemia
# SW-620 colon = system: SW-620 colon
# T-47D breast = system: T-47D breast
# TK-10 renal = system: TK-10 renal
# U251 CNS = system: U251 CNS
# UACC-257 melanoma = system: UACC-257 melanoma
# UACC-62 melanoma = system: UACC-62 melanoma
# UO-31 renal = system: UO-31 renal
compound,measurement,setting,value
O=C1OCC2=C1C(c1ccccc1)c1cc3c(cc1N2CCO)OCO3 (stereo unspecified),GI50,786-0 renal,3.54 µM
same,TGI,786-0 renal,> 50 µM
same,GI50,A498 renal,3.38 µM
same,TGI,A498 renal,> 50 µM
same,GI50,A549 NSCLC,14.7 µM
same,TGI,A549 NSCLC,> 50 µM
same,GI50,ACHN renal,30.5 µM
same,TGI,ACHN renal,> 50 µM
same,GI50,BT-549 breast,4.93 µM
same,TGI,BT-549 breast,> 50 µM
same,GI50,CAKI-1 renal,3.87 µM
same,TGI,CAKI-1 renal,> 50 µM
same,GI50,CCRF-CEM leukemia,4.54 µM
same,TGI,CCRF-CEM leukemia,> 50 µM
same,GI50,COLO 205 colon,2.71 µM
same,TGI,COLO 205 colon,17.1 µM
same,GI50,DU-145 prostate,10.6 µM
same,TGI,DU-145 prostate,> 50 µM
same,GI50,EKVX NSCLC,14 µM
same,TGI,EKVX NSCLC,> 50 µM
same,GI50,HCC-2998 colon,9.91 µM
same,TGI,HCC-2998 colon,> 50 µM
same,GI50,HCT-116 colon,1.79 µM
same,TGI,HCT-116 colon,> 50 µM
same,GI50,HCT-15 colon,2.96 µM
same,TGI,HCT-15 colon,> 50 µM
same,GI50,HL-60(TB) leukemia,3.46 µM
same,TGI,HL-60(TB) leukemia,> 50 µM
same,GI50,HOP-62 NSCLC,4.08 µM
same,TGI,HOP-62 NSCLC,> 50 µM
same,GI50,HOP-92 NSCLC,13.9 µM
same,TGI,HOP-92 NSCLC,> 50 µM
same,GI50,HS 578T breast,2.72 µM
same,TGI,HS 578T breast,33.7 µM
same,GI50,HT29 colon,1.72 µM
same,TGI,HT29 colon,> 50 µM
same,GI50,IGROV1 ovarian,2.91 µM
same,TGI,IGROV1 ovarian,> 50 µM
same,GI50,K-562 leukemia,1.91 µM
same,TGI,K-562 leukemia,> 50 µM
same,GI50,KM12 colon,2.37 µM
same,TGI,KM12 colon,> 50 µM
same,GI50,LOX IMVI melanoma,7 µM
same,TGI,LOX IMVI melanoma,> 50 µM
same,GI50,M14 melanoma,1.92 µM
same,TGI,M14 melanoma,23.3 µM
same,GI50,MALME-3M melanoma,> 50 µM
same,TGI,MALME-3M melanoma,> 50 µM
same,GI50,MCF7 breast,1.76 µM
same,TGI,MCF7 breast,> 50 µM
same,GI50,MDA-MB-231 breast,24.8 µM
same,TGI,MDA-MB-231 breast,> 50 µM
same,GI50,MDA-MB-435,0.563 µM
same,TGI,MDA-MB-435,3.25 µM
same,GI50,MOLT-4 leukemia,> 50 µM
same,TGI,MOLT-4 leukemia,> 50 µM
same,GI50,NCI-H226 lung,> 50 µM
same,TGI,NCI-H226 lung,> 50 µM
same,GI50,NCI-H23 lung,7.88 µM
same,TGI,NCI-H23 lung,> 50 µM
same,GI50,NCI-H460 lung,2.07 µM
same,TGI,NCI-H460 lung,> 50 µM
same,GI50,NCI-H522 lung,1.09 µM
same,TGI,NCI-H522 lung,> 50 µM
same,GI50,NCI/ADR-RES ovarian,2.08 µM
same,TGI,NCI/ADR-RES ovarian,17.8 µM
same,GI50,OVCAR-3 ovarian,1.15 µM
same,TGI,OVCAR-3 ovarian,2.6 µM
same,GI50,OVCAR-4 ovarian,4.38 µM
same,TGI,OVCAR-4 ovarian,> 50 µM
same,GI50,OVCAR-5 ovarian,13.4 µM
same,TGI,OVCAR-5 ovarian,> 50 µM
same,GI50,OVCAR-8 ovarian,12.1 µM
same,TGI,OVCAR-8 ovarian,> 50 µM
same,GI50,PC-3 prostate,4.66 µM
same,TGI,PC-3 prostate,> 50 µM
same,GI50,RPMI-8226 leukemia,3.09 µM
same,TGI,RPMI-8226 leukemia,> 50 µM
same,GI50,RXF 393 renal,8.03 µM
same,TGI,RXF 393 renal,35.7 µM
same,GI50,SF-268 CNS,3.82 µM
same,TGI,SF-268 CNS,> 50 µM
same,GI50,SF-295 CNS,1.25 µM
same,TGI,SF-295 CNS,3.53 µM
same,GI50,SF-539 CNS,2.41 µM
same,TGI,SF-539 CNS,> 50 µM
same,GI50,SK-MEL-2 melanoma,2.72 µM
same,TGI,SK-MEL-2 melanoma,> 50 µM
same,GI50,SK-MEL-28 melanoma,> 50 µM
same,TGI,SK-MEL-28 melanoma,> 50 µM
same,GI50,SK-MEL-5 melanoma,2.78 µM
same,TGI,SK-MEL-5 melanoma,> 50 µM
same,GI50,SK-OV-3 ovarian,8.28 µM
same,TGI,SK-OV-3 ovarian,> 50 µM
same,GI50,SN12C renal,20.2 µM
same,TGI,SN12C renal,> 50 µM
same,GI50,SNB-19 CNS,15.6 µM
same,TGI,SNB-19 CNS,> 50 µM
same,GI50,SNB-75 CNS,2.06 µM
same,TGI,SNB-75 CNS,> 50 µM
same,GI50,SR leukemia,3.49 µM
same,TGI,SR leukemia,> 50 µM
same,GI50,SW-620 colon,2.18 µM
same,TGI,SW-620 colon,> 50 µM
same,GI50,T-47D breast,3.12 µM
same,TGI,T-47D breast,> 50 µM
same,GI50,TK-10 renal,32.7 µM
same,TGI,TK-10 renal,> 50 µM
same,GI50,U251 CNS,3.01 µM
same,TGI,U251 CNS,> 50 µM
same,GI50,UACC-257 melanoma,> 50 µM
same,TGI,UACC-257 melanoma,> 50 µM
same,GI50,UACC-62 melanoma,2.53 µM
same,TGI,UACC-62 melanoma,> 50 µM
same,GI50,UO-31 renal,27.8 µM
same,TGI,UO-31 renal,> 50 µM
